Structures are written as SMILES. pIC50: −log10 of the molar value.

For this test, the target named is T1, human ferroportin (Homo sapiens, UniProt Q9NP59).
T1 construct: expressed in transfected cells
T1 sequence (Q9NP59 1-571): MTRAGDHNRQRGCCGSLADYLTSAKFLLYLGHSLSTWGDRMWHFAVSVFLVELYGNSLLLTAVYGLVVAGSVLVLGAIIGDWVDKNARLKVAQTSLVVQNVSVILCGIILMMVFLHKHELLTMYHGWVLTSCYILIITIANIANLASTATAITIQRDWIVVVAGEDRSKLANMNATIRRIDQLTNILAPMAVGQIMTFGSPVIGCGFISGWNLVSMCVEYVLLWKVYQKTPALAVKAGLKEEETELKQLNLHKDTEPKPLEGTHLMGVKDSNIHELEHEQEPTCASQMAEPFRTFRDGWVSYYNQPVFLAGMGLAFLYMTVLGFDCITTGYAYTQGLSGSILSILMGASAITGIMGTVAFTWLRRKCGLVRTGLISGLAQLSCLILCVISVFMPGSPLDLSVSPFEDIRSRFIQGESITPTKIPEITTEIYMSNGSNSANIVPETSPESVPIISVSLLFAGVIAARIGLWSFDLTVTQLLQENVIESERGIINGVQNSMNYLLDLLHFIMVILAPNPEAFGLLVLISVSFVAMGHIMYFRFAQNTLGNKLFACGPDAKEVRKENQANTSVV
Description: ferroportin internalization assay (inhibition of hepcidin-induced internalization of Fpn). The class given is cell-based. The conditions noted are these: MDCK-FPN-HaloTag cells, 100 nM hepcidin, overnight incubation; concentration range from 0.04 to 40 μM. In outline:
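MDCK cells stably expressing human ferroportin–HaloTag were labelled with TMR ligand, then incubated overnight at 37 °C with compound plus 100 nM hepcidin (final). After fixation and nuclear staining, confocal imaging quantified membrane Fpn fluorescence to measure blocking of hepcidin-induced internalization.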
`Cc1cc2c(cc1F)-c1ccc3cccnc3c1NS2(=O)=O` [Example 331, 9-Fluoro-8-methyl-5H-6-thia-4,5-diaza-chrysene 6,6-dioxide]: the pIC50 (usually the IC50 on a negative log10 scale, so that one unit is a factor of ten) was 5.49.

In turn, `O=S1(=O)Nc2c(ccc3cccnc23)-c2ccc(C(F)(F)F)cc21` [Example 332, 8-Trifluoromethyl-5H-6-thia-4,5-diaza-chrysene 6,6-dioxide] showed a pIC50 of 5.63.

Consider `O=S1(=O)Nc2c(ccc3cccnc23)-c2cc(OC(F)(F)F)ccc21` [Example 333, 9-Trifluoromethoxy-5H-6-thia-4,5-diaza-chrysene 6,6-dioxide], for which the pIC50 was 5.93.

`O=S1(=O)Nc2c(cc(Cl)c3cccnc23)-c2cc(C(F)(F)F)ccc21` [Example 334, 12-Chloro-9-trifluoromethyl-5H-6-thia-4,5-diaza-chrysene 6,6-dioxide] had a pIC50 of 5.20.

For the compound `Cc1cccc2c1S(=O)(=O)Nc1c-2ccc2cccnc12` [Example 335, 7-Methyl-5H-6-thia-4,5-diaza-chrysene 6,6-dioxide], the pIC50 is 5.41. Against the preceding compound, the pIC50 is 0.21 log units higher.

The compound `CN1C(c2ccc(F)cc2)c2ccc3cccnc3c2NS1(=O)=O` (stereo not shown) [Example 382, 1-(4-Fluoro-phenyl)-2-methyl-1,4-dihydro-2H-3-thia-2,4,5-triaza-phenanthrene 3,3-dioxide] had a pIC50 of 6.47. Compared with the last compound, the pIC50 is 1.06 log units higher.

Turning to `Cc1ccc(C2c3ccc4cccnc4c3NS(=O)(=O)N2C)cc1` (stereo not shown) [Example 383, 2-Methyl-1-p-tolyl-1,4-dihydro-2H-3-thia-2,4,5-triaza-phenanthrene 3,3-dioxide], the pIC50 is 6.22. This pIC50 lies 0.25 log units lower than the previous one.

For `COc1ccccc1C1c2ccc3cccnc3c2NS(=O)(=O)N1C` (stereo not shown) [Example 384, 1-(2-Methoxy-phenyl)-2-methyl-1,4-dihydro-2H-3-thia-2,4,5-triaza-phenanthrene 3,3-dioxide], the pIC50 is 5.73. This pIC50 lies 0.49 log units lower than the previous one.

For the compound `CN1C(c2ccc(C(F)(F)F)cc2)c2ccc3cccnc3c2NS1(=O)=O` (stereo not shown) [Example 385, 2-Methyl-1-(4-trifluoromethyl-phenyl)-1,4-dihydro-2H-3-thia-2,4,5-triaza-phenanthrene 3,3-dioxide], the pIC50 was 5.86.

As to `CN1C(c2ccc(C(F)(F)F)nc2)c2ccc3cccnc3c2NS1(=O)=O` (stereo not shown) [Example 386, 2-Methyl-1-(6-trifluoromethyl-pyridin-3-yl)-1,4-dihydro-2H-3-thia-2,4,5-triaza-phenanthrene 3,3-dioxide], the pIC50 was 6.02. The pIC50 values of the last two compounds are within 0.2 log units of each other.

`CN1C(c2ccncc2F)c2ccc3cccnc3c2NS1(=O)=O` (stereo not shown) [Example 387, 1-(3-Fluoro-pyridin-4-yl)-2-methyl-1,4-dihydro-2H-3-thia-2,4,5-triaza-phenanthrene 3,3-dioxide] had a pIC50 of 5.80.

Compound `CN1C(c2ccc(F)cn2)c2ccc3cccnc3c2NS1(=O)=O` (stereo not shown) [Example 388, 1-(5-Fluoro-pyridin-2-yl)-2-methyl-1,4-dihydro-2H-3-thia-2,4,5-triaza-phenanthrene 3,3-dioxide] gave a pIC50 of 5.80.

Compound `CN1C(c2cccc(F)c2)c2ccc3cccnc3c2NS1(=O)=O` (stereo not shown) [Example 389, 1-(3-Fluoro-phenyl)-2-methyl-1,4-dihydro-2H-3-thia-2,4,5-triaza-phenanthrene 3,3-dioxide] showed a pIC50 of 6.14.

Take `COc1ccc(C2c3ccc4cccnc4c3NS(=O)(=O)N2C)cc1` (stereo not shown) [Example 390, 1-(4-Methoxy-phenyl)-2-methyl-1,4-dihydro-2H-3-thia-2,4,5-triaza-phenanthrene 3,3-dioxide]: the pIC50 was 5.65.

The compound `CN1C(c2ccc(F)c(Cl)c2)c2ccc3cccnc3c2NS1(=O)=O` (stereo not shown) [Example 391, 1-(3-Chloro-4-fluoro-phenyl)-2-methyl-1,4-dihydro-2H-3-thia-2,4,5-triaza-phenanthrene 3,3-dioxide] showed a pIC50 of 5.43.

With `CN1C(c2ccc(F)c(F)c2)c2ccc3cccnc3c2NS1(=O)=O` (stereo not shown) [Example 392, 1-(3,4-Difluoro-phenyl)-2-methyl-1,4-dihydro-2H-3-thia-2,4,5-triaza-phenanthrene 3,3-dioxide], the pIC50 is 6.60.

These data come from patent US9102688B2, “Sulfonaminoquinoline hepcidin antagonists” (Vifor (International) AG, priority 2011, dated 2015).
